Test results reported in patent US9820967B2 (priority 2014, dated 2017).
“And” between values parts separate entries of the source, which are not always exact repeats. Identical values can stand only once. “Also recorded” adds a separate entry of the source. Like-named read-outs stand apart in the source and are kept apart here.

Legend:
[1] = test system: efflux pump (EPI functionality); assay: EPI functionality assays of authentic standard; assay type: cell-based, Escherichia coli
Text: Moreover, this “halogenome” appeared to be dominated by brominated metabolites, with only some metabolites (<10) that were additionally chlorinated. […] Relative concentrations of halogenated compounds from clade IV appeared different even within members of the same species, indicative of intraspecies chemical diversity and further subclustering among isolates of the same species (A757, A754, A746, and B149), a phenomenon previously described for P. luteoviolacea strains. […] The presence of 2,3,4-tribromopyrrole was also determined (retention time 20.1 min, major ion m/z 301.7639), which was present in A757, A754, and A746, but not in B149. […]
(§1) To truly be considered an efflux pump inhibitor (EPI), the compound must increase the level of accumulation and decrease the level of extrusion of efflux pump substrates. The fluorescent DNA-binding dye Hoechst 33342 (H33342) a known substrate for RND pumps, is easily detected in the cell, can freely permeate the outer membrane, and can act as a reporter, all allowing for quantification of transport across living cells. Efflux-competent cells extrude H33342 and accumulate dye at a relatively slow rate, resulting in low levels of background fluorescence. Conversely, efflux-defective cells (e.g., presence of EPI) accumulate intracellular levels of H33342 at a higher rate, resulting in fluorescence retention. […]

[2] = target: wild-type E. coli AG100 expressing the AcrAB-TolC pump (Escherichia coli, UniProt P31224); assay type: cell-based
Text: (§2) Upon entering the bacterial cell, H33342 becomes fluorescent once bound to the DNA minor groove.
as §1
(§3) For accumulation assays, in efflux-competent cells such as AG100, H33342 would be extruded resulting in low levels of background fluorescence, while the presence of a putative EPI would cause intracellular H33342 accumulation. […] Fluorescence values for wells containing media and compounds only were subtracted from those containing bacteria to control for any background fluorescence due to the presence of test compounds. […]

[3] = test system: E. coli strains overexpressing efflux pumps (AG102, MG1655 ΔBC/pABM, MG1655 ΔBC/pXYM; AcrAB-TolC, MexAB-OprM, MexXY-OprM); assay type: cell-based, Escherichia coli
Text: The checkerboard assay was used to determine whether 3,4-dibromopyrrole-2,5-dione potentiates the activity of two fluoroquinolones (ciprofloxacin (CIP) and levofloxacin (LEV)), an aminoglycoside (kanamycin (KAN)), a macrolide (erythromycin (ERY)), two β-lactams (oxacillin (OXA) and piperacillin (PIP)), tetracycline (TET), and chloramphenicol (CHL), known substrates for resistance nodulation cell division pump (RND) transporters, against test strains of multidrug resistant (MDR) E. coli. Interactions between 3,4-dibromopyrrole-2,5-dione and various antibiotics were classified based upon the fractional inhibitory concentration index (FICI), where a FIC of <0.5 is synergistic and indicative of the presence of an efflux pump inhibitor (EPI); 0.5-1 is indifferent; and >1 is antagonistic. […]
Bacterial susceptibility of extracts were tested in duplicate at 1 mg/mL and determined by rapid p-iodonitrotetrazolium chloride colorimetric assay in 96-well microtiter plates in a final volume of 200 μL as previously described (Kuete (2010), Antimicrob. Agents Chemother., 54, 1749-1752). […]
To assess the interaction between different classes of antibiotics and 3,4-dibromopyrrole-2,5-dione, standard checkerboard assays were performed in which the minimum inhibitory concentrations (MICs) of antibiotics were determined in the presence of different concentrations of 3,4-dibromopyrrole-2,5-dione. […]

[4] = target: H33342 efflux in E. coli AG100 (AcrAB-TolC) (Escherichia coli, UniProt P31224); assay: Hoechst 33342 efflux assay, AG100; assay type: cell-based
Text: To truly be considered an efflux pump inhibitor (EPI), the compound must increase the level of accumulation and decrease the level of extrusion of efflux pump substrates. The fluorescent DNA-binding dye Hoechst 33342 (H33342) a known substrate for RND pumps, is easily detected in the cell, can freely permeate the outer membrane, and can act as a reporter, all allowing for quantification of transport across living cells. Efflux-competent cells extrude H33342 and accumulate dye at a relatively slow rate, resulting in low levels of background fluorescence. Conversely, efflux-defective cells (e.g., presence of EPI) accumulate intracellular levels of H33342 at a higher rate, resulting in fluorescence retention. Wild-type E. coli K-12 strain, AG100, and AG100A, the ΔacrAB mutant, a generous gift from Dr. M. Viveiros (Universidad Nova de Lisboa, Portugal), were used in accumulation and efflux assays. […] All experiments were performed in duplicate. Heat-inactivated bacteria were used as a positive control to assess maximal dye accumulation.

fungi = details: Tsukamoto et al. (2001); cited from earlier work
[5] = test system: murine lymphocytic leukemia cells; details: cited from earlier work
[6] = test system: E. coli mutant AG100A (ΔacrAB), lacking the pump; assay type: cell-based, Escherichia coli; details: transporter deficient
Text: as §2, §1, §3

H33342 efflux in E. coli AG100 (AcrAB-TolC), sequence (P31224 whole entry): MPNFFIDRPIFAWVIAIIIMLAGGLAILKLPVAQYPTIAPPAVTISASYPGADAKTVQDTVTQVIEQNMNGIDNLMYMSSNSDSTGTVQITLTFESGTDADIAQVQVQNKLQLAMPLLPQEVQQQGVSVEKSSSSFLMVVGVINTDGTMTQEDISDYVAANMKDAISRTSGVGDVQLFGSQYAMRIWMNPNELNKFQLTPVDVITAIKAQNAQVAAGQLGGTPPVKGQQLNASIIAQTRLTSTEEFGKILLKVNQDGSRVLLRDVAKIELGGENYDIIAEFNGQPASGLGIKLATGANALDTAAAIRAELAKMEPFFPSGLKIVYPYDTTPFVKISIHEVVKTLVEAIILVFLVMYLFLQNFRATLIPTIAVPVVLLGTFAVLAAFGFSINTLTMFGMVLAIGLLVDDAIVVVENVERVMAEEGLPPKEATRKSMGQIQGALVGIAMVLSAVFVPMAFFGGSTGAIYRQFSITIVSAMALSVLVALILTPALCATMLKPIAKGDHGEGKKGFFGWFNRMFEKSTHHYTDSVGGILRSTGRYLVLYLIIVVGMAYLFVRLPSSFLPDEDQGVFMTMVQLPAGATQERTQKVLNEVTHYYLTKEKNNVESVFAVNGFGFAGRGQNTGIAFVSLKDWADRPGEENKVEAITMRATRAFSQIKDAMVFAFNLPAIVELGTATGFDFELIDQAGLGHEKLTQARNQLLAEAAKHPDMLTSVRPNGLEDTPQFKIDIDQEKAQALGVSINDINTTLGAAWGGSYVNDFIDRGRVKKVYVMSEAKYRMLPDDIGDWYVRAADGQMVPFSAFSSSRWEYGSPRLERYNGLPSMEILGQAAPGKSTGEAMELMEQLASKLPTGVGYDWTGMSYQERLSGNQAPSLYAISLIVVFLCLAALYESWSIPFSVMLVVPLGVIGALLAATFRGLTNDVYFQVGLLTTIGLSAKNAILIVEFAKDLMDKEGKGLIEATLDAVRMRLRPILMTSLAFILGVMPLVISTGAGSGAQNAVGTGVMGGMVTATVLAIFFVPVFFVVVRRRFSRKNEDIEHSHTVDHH
H33342 efflux in E. coli AG100 (AcrAB-TolC), sequence (P0AE06 25-397, further chain): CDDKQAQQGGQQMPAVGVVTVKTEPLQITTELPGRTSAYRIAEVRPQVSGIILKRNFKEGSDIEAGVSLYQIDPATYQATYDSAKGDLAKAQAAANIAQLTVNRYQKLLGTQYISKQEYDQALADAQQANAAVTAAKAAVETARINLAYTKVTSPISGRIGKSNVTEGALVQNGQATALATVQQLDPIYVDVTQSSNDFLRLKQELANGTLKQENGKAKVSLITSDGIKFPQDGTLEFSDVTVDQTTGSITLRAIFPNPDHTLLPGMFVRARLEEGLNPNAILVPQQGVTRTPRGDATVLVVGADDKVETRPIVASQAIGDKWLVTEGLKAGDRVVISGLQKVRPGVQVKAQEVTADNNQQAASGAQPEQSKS
H33342 efflux in E. coli AG100 (AcrAB-TolC), sequence (P02930 23-493, further chain): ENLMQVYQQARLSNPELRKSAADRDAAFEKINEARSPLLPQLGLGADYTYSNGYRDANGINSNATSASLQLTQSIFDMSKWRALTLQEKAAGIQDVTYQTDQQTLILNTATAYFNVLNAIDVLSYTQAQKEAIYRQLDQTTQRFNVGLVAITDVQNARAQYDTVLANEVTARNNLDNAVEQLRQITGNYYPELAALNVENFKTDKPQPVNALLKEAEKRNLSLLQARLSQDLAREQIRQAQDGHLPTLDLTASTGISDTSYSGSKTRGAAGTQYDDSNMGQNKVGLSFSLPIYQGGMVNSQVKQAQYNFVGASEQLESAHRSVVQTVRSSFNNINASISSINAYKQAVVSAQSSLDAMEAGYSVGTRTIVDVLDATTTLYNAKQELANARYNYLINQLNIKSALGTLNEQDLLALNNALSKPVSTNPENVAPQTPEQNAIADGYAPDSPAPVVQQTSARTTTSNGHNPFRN
wild-type E. coli AG100 expressing the AcrAB-TolC pump, sequence (P31224 whole entry): as the sequence (P31224 whole entry) above
wild-type E. coli AG100 expressing the AcrAB-TolC pump, sequence (P0AE06 25-397, further chain): as the sequence (P0AE06 25-397, further chain) above
wild-type E. coli AG100 expressing the AcrAB-TolC pump, sequence (P02930 23-493, further chain): as the sequence (P02930 23-493, further chain) above

Structure (SMILES)	EPI activity of authentic standard [1]	concentration equal to or more effective than PAβN (15.6 μg/mL) in causing H33342 accumulation [2] [µg/mL]	intracellular H33342 fluorescence (accumulation) [2]	interaction by fractional inhibitory concentration index (FICI) ([3]; all antibiotics tested with the exception of piperacillin)	antibacterial activity of compound alone, concentration ([3]; all three E. coli strains overexpressing efflux pumps) [µg/mL]	IC50 [4]	most dilute concentration with significant (p<0.05) H33342 efflux inhibition vs solvent controls [4] [µg/mL]	inhibition of H33342 efflux vs control wells ([4]; 0.06-64 μg/mL, glucose, 37° C.)	antifungal activity (fungi)	cytotoxicity [5]	effect on H33342 fluorescence (accumulation) [6]	effect on H33342 fluorescence (accumulation) ([6]; listed as 3,4-Dibromopyrrole-2,5-dione)
Brc1[nH]c(Br)c(Br)c1Br [2,3,4,5-tetrabromopyrrole]	not to be responsible for the EPI activity	–	–	–	–	–	–	–	–	–	–	–
O=C1NC(=O)C(Br)=C1Br [3,4-dibromopyrrole-2,5-dione]	–	≥ 1	dose-dependent increase; also recorded: increased	synergistic (a FIC of <0.5 is synergistic and indicative of the presence of an efflux pump inhibitor (EPI))	> 100	3.1 µM and 3 µM	0.06	near-complete inhibition	modest antifungal activity	cytotoxicity	no effect	not
